{"source": "patent US20150307938A1", "about": "“METHOD TO IDENTIFY A NOVEL CLASS OF IMMUNOLOGIC ADJUVANTS” (Lancell, L.L.C., priority 2011, published 2015)", "key": {"[1]": {"test_system": "Murine Skin Dendritic Cells", "experiment": "Activation of murine skin dendritic cells by DBP vs. DBlT (DC per lymph node, CD86)", "assay_type": "in vivo", "settings": "topical treatment"}, "tumor": {"test_system": "tumor", "design": "species or system mice", "settings": "mouse, in vivo"}}, "data": [{"compound": "CCCCOC(=O)c1ccccc1C(=O)OCCCC", "note": "[DBP, dibutylphthalate]", "values": [{"measurement": "MFI CD86", "setting": "[1]", "value": "618 (95)"}, {"measurement": "tumor-specific immunity", "setting": "tumor", "value": "Protective and therapeutic tumor-specific immunity were induced"}]}]}
